In publication PMC12723449, “From Pharmacophore to Warhead: NAD^+‐Targeting Triazoles as Mechanism‐Based Sirtuin Inhibitors” (Angewandte Chemie (International Ed. in English), 2025):

Experiments:
SIRT2 [1] = molecular target: T1, SIRT2 (Homo sapiens, UniProt Q8IXJ6); test: CE-ESI-MS analysis of adducts formed in vitro; type: biochemical; settings: SIRT2 incubated with NAD+ and compound, thermal denaturation
T1 construct: For assay experiments, strep-tagged human SIRT1134−747 and SIRT256-356 were expressed and purified as previously; Strep-tag; made in house; host or cells: E. coli BL21 Star (DE3)
T1 sequence (Q8IXJ6 56-356 limits assumed): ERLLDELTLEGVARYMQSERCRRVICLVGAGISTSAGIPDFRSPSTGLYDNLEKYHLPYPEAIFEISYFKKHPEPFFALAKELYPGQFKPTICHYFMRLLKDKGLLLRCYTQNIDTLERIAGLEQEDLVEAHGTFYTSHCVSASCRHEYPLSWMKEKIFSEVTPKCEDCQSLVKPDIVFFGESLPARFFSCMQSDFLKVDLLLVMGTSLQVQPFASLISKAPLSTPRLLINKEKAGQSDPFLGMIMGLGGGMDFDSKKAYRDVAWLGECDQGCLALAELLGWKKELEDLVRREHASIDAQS
Protocol: Capillary electrophoresis–electrospray ionization–mass spectrometry (CE-ESI-MS) analysis of […]
Analysis of the enzymatic products were performed using a capillary electrophoresis coupled to mass spectrometry method (CE-MS) described first in the separation of inositol (pyro)phosphates.[11] CE (Agilent 7100 CE system) was coupled to a time-of-flight mass spectrometry Agilent 6545 system and ionization was performed with a commercially available Agilent Jet Stream (AJS) electrospray ionization (ESI) source. An Agilent liquid coaxial interface was used and the ionization spray was stabilized with a water-isopropanol (1:1 v/v) mixture as sheath liquid. The sheath liquid was pumped with an Agilent 1200 isocratic LC pump, using a 1:100 splitter and resulting in a flow of 1.5 µl/min.
A mixture of SIRT256-356 (final concentration of 11 mg/mL) in SEC buffer, compound 1 or 7 (3.33 mM of inhibitor with a final DMSO concentration of 3.33 % (v/v)) and NAD+ (final concentration of 10 mM) were incubated for 90 min and centrifuged for 5 min to remove inhibitor precipitate. Following SIRT2 denaturation at 65 °C for 1 min and centrifugation for 5 min to remove precipitated protein, 20 nL of each sample was injected under 100 mbar pressure for 20 s. […] Analytes were detected in negative ionization mode, a capillary voltage of -3000 V and an ESI spray current of 2.1 µA. […]

SIRT2 [2] = molecular target: T1, SIRT2; test: Fluorescence-based deacetylation assay (ZMAL-assay), SIRT2; type: biochemical; settings: 37 °C, assay limit 0.10 µM, read-out: SIRT2 (deac.) IC50
Protocol: Determination of IC50 values (SIRT1, SIRT2, SIRT3) via fluorescence-based deacetylation assay […]
The fluorescence-based deacetylation assay was conducted in a black 384-well microplate (OptiPlate-384 F, PerkinElmer) with a total volume of 30 µL per well and a final DMSO concentration of 2% (v/v) according to a […]
concentration of 100 nM) in assay buffer (50 mM Tris, 137 mM NaCl, 2.7 mM KCl, 1m MgCl2, 0.01% Tween, 0.05 mg/mL BSA, 0.2 mM TCEP, pH 8.0), 5 µL of substrate (ZMAL, final concentration of 10.5 µM), 5 µL of NAD+ (final concentration of 500 µM) and 10 µL of inhibitor solution (final concentration of 30 µM – 0.014 µM, serial 1:3 dilutions) was incubated at 37 °C and 300 rpm for 4 h. A solution of trypsin (final concentration of 0.5 mg/mL) and nicotinamide (final concentration of 4 mM) was added and incubated at 37 °C and 300 rpm for 30 min to stop the reaction. Samples with 2% (v/v) DMSO instead of inhibitor were prepared as a positive control, and samples with 2% (v/v) DMSO instead of SIRT enzyme were prepared as a negative control. Fluorescence intensity was measured with a microplate reader (λEx = 380-10 nm, λEm = 460 nm, BMG POLARstar Optima, BMG Labtech, Germany). IC50 values were then determined using a nonlinear regression fit with Origin Pro 2019 software. All experiments were performed at least in duplicates. […]

SIRT2 [3] = molecular target: T1, SIRT2; test: Differential scanning fluorimetry (DSF) / fluorescence thermal shift assay; type: binding
Protocol: Differential scanning fluorimetry (DSF) assay
Differential scanning fluorimetry assays were performed in white 96-well plates (Hard-Shell PCR Plates, BioRad, USA) with a total volume of 20 µL per well and a final DMSO concentration of 5% (v/v), following a published
A solution of 10 µL SIRT2 (final concentration of 6.0 µM) and SYPRO Orange (5x, Sigma-Aldrich, Germany) in assay buffer (25 mM Tris-HCl, 150 mM NaCl, 1 mM DTT, pH 8.0) was mixed with 10 µL of compound and incubated at 25 °C and 350 rpm for 5 min. Where applicable, NAD+ was added to a final concentration of 2.5 mM. Fluorescence
(C1000 Touch™ Thermal Cycler, CFX96™ Real-Time System, BioRad, USA). Melting temperatures were determined using GraphPad Prism, following a published procedure.[6]

ADPR adduct detected in solution by CE-ESI-MS (SIRT2 [1])	IC50 (SIRT2 [2])	ΔTm at 10 µM (SIRT2 [3]; 10 µM compound, with NAD+ addition)	SMILES	NAD+-dependent thermal stabilization of SIRT2 (SIRT2 [3]; upon NAD+ addition)
confirmed release of 7–ADPR	7.8 ± 2.1 µM	–	Cc1cc(C)nc(SCC(=O)Nc2ncc(Cc3cccc(OCc4c[nH]nn4)c3)s2)n1 [Compound 7]	–
–	< 0.1 µM	16.3 ± 0.1 °C	CCCCCCCCCCCCc1cn(CCCC[C@H](NC(=O)[C@H](CCCCN)NC(=O)[C@@H]2CCCN2C(=O)[C@H](CC(C)C)NC(=O)[C@H](C)NC(=O)[C@H](CCC(=O)O)NC(C)=O)C(=O)N[C@H](C(=O)NCC(=O)NCC(N)=O)[C@@H](C)O)nn1 [Compound 6]	–
undetectable	–	–	COCCn1cc(COc2cccc(Cc3cnc(NC(=O)CSc4nc(C)cc(C)n4)s3)c2)nn1 [Compound 1, reference compound]	pronounced NAD^+‐dependent thermal stabilization
